This is an account of results in ChEMBL document CHEMBL1144247, “Fluorescent polycyclic ligands for nitric oxide synthase (NOS) inhibition” (Bioorg Med Chem, 2008).

A word on the IC50: it is the concentration that inhibits the measured activity by half. Broadly, the pIC50 is the IC50 on a negative log10 scale, so that one unit is a factor of ten. Lower therefore signals a high IC50.

The assay can be described thus: Inhibition of NOS in Sprague-Dawley rat brain by oxyhaemoglobin assay.

`N#Cc1c2ccccc2cn1C12CC3CC(CC(C3)C1)C2`: 0.291 µM corresponded to half-maximal inhibition (IC50) and the pIC50 was determined as 4.52. The matching figures for `O=C(NC12CC3CC(CC(C3)C1)C2)c1n[nH]c2ccccc12`: 2.53 µM and 3.52. Turning to `CNc1ccccc1C(=O)NC12CC3CC(CC(C3)C1)C2`, the pIC50 worked out at 2.53.

Turning to `CNc1ccccc1C(=O)OC12C3C4CC5C6C4C1C6C1(OCCCN12)C53` (centres undefined), the pIC50 stood at 2.93. For the compound `O=C(O)c1n[nH]c2ccccc12`, the IC50 is 9.65 µM and the pIC50 is given as 3.28. For the compound `N#CSc1c2ccccc2cn1C12CC3CC(CC(C3)C1)C2`, the pIC50 is on record as 3.88. Same read-out and setting: with `O=[N+]([O-])c1c2ccccc2cn1C12CC3CC(CC(C3)C1)C2` the figure was 3.74.

Regarding `O=C(OC12C3C4CC5C6C4C1C6C1(OCCCN12)C53)c1n[nH]c2ccccc12` (centres undefined), the IC50 worked out at 0.35 µM and the pIC50 is on record as 4.22. The matching figures for `N=C(N)NN` [PIMAGEDINE]: 19.4 µM and 2.72.
